Measurements taken from US7410975B2, “Small molecule toll-like receptor (TLR) antagonists” (Coley Pharmaceutical Group, Inc., priority 2003, dated 2008).
pEC50, pIC50: −log10 of the molar value. Entries after “also recorded” stand apart in the source; their conditions may differ. Where two headings read alike, the source gives them in different places.

Tests used:
[1] = system: CpG ODN-generated IL-6 production by human PBMC; assay: Blockade of CpG ODN-generated IL-6 production by human PBMC, ELISA (Example 8, Table 19); assay type: cell-based; details: CpG-ODN 2006, 16 h
Source text: Alternatively, TLR9 ligand antagonism in human peripheral blood mononuclear cells (PBMC) was monitored. Peripheral blood buffy coat preparations from healthy male and female human donors were obtained from the Blood Bank of the University of Düsseldorf (Germany) and from these, PBMC were purified by centrifugation over Ficoll-Hypaque (Sigma). The purified PBMC were resuspended in RPMI 1640 culture medium supplemented with 5% (v/v) heat-inactivated human AB serum (Bio Whittaker, Belgium) or 10% (v/v) heat-inactivated fetal calf serum (FCS), 1.5 mM L-glutamine, 100 U/ml penicillin and 100 μg/ml streptomycin (all from Sigma). Fresh PBMC at a concentration of 3×10^6/ml to 5×10^6/ml were added to 96-well round-bottomed plates (150 μl/well). After cell plating, antagonist was added at varying concentrations starting at 50 μM with a 1/5 to 1/6 dilution for 7 steps. The cells were then stimulated with the TLR9 agonist, CpG-ODN 2006, and cultured for 16 h in a humidified incubator at 37° C. Culture supernatants were collected and, if not used immediately, frozen at −20° C. until required. Interleukin 6 (IL-6) in the supernatants was quantitatively assessed using commercially available ELISA Kits (IL6, Diaclone, USA). Sigmoidal antagonism curves were generated and IC50 calculated. Results shown in Table 19 under the heading IL-6 are the IC50 dose (μM) for blockade of CpG ODN-generated IL-6 production by human PBMC.

hTLR9 = target: T1, hTLR9 (Homo sapiens, UniProt Q9NR96); assay: hTLR9 antagonism IC50, hTLR9-NFkB-293 cells, luciferase readout, CpG-ODN 2006 (Examples 8 and 18, Tables 19 and 20); assay type: cell-based; details: hTLR9-NFkB-293 cells, EC50 dose of CpG-ODN 2006, 16 h; Table 19 quinazolines; read-out: hTLR9 (IC50 dose for blockade of a CpG ODN-generated signal)
T1 construct: expressed in transfected cells
T1 sequence (Q9NR96 26-1032): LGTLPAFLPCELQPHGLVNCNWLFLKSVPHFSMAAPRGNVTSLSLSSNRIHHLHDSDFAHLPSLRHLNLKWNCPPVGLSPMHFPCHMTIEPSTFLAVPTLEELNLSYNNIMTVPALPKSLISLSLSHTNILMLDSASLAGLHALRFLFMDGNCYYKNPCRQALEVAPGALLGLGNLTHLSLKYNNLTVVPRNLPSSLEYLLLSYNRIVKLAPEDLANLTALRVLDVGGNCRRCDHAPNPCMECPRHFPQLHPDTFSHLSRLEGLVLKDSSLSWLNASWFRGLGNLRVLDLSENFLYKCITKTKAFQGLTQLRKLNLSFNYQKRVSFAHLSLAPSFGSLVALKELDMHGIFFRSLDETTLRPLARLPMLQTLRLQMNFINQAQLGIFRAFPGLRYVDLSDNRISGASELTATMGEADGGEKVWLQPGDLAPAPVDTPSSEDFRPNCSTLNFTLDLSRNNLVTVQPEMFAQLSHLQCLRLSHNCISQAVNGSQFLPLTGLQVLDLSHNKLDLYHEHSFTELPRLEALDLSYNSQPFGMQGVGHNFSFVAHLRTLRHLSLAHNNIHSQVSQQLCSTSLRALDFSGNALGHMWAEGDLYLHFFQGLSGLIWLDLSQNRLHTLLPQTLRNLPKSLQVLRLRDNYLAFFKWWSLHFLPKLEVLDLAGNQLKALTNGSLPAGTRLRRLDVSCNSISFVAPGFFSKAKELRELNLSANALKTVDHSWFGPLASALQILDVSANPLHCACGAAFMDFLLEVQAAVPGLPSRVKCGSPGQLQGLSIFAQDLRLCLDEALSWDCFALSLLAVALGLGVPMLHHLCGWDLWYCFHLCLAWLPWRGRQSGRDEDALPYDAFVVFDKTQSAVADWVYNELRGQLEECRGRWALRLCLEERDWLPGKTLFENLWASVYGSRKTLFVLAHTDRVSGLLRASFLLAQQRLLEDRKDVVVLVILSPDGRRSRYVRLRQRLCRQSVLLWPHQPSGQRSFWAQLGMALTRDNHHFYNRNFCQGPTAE
Protocol: (§1) hTLR9-NFkB-293 cells were counted and seeded at 1.5×10^4 cells per well in 96-well cell culture plates one day before assaying and cultured at 37° C./5% CO2, as described in Example 7. The day of the assay, antagonist was added at varying concentrations starting at 50 μM with a 1/5 to 1/6 dilution for 7 steps. The cells were then stimulated with the EC50 dose of the TLR9 agonist, CpG-ODN 2006, and cultured for 16 h in a humidified incubator at 37° C. The culture supernatant was removed and the cells were treated with lysis buffer and stored at −80° C. before measuring luciferase activity as described in Example 7. […] Results shown in Table 19 under the heading hTLR9 are the IC50 dose (μM) for blockade of a CpG ODN-generated signal in hTLR9-NFkB-293 cells.
as §1, with “20” for “19”

[2] = In vivo toxicity in mice: body weight, mortality, white blood cell differential (Example 9); set-up: species or system BALB/c mice
Source text: FIG. 2 is a pair of graphs depicting results of an in vivo toxicity assay in mice for specific quinoline and quinazoline compounds. […] N=3 for each treatment group.
FIG. 3 is a bar graph depicting total and differential white blood cell counts in mice measured five days after administration of a single intraperitoneal dose of specific quinoline and quinazoline compounds. N=3 for each treatment group.
Female BALB/c mice (n=3 per group) were given a single intraperitoneal bolus injection of CMZ 203-43 (1.0 or 4.0 mg), CMZ 203-34 (1.0 or 4.0 mg) or CMZ 203-49 (1.0 or 4.0 mg) in a volume of 0.2 ml. Compound CMZ 203-43 has the structural formula
Other mice received 10% dimethyl sulfoxide (DMSO) in an identical manner. Animals were weighed immediately prior to injection (day 1) and then daily until day 5. On day 5, blood was collected by cardiac puncture and analyzed for hematological and biochemical parameters. Animals were monitored daily for morbidity and mortality.
All of the mice receiving 4.0 mg CMZ 203-43 group were dead on day 4.
Data for mice treated with 4.0 mg CMZ 203-43 was not available because all these mice were dead before day 5.

[3] = system: IP-10 induction by CpG ODN 2006; assay: In vivo inhibition of IP-10 induction by CpG ODN 2006 (Example 10); set-up: species or system BALB/c mice; details: 40 μg intraperitoneal 1 h before 100 μg CpG ODN 2006 s.c.; bled at 3 hr
Protocol: FIG. 4 is a bar graph depicting in vivo inhibition of IP-10 induction (pg/ml) by CpG ODN 2006 following pretreatment with PBS control or a quinoline compound (203-43) or various indicated quinazoline compounds (203-34, 203-49, or 203-51). N=5 for each group.
(§2) BALB/c mice (n=5) were pretreated with intraperitoneal injection of 40 μg quinoline 203-43, quinazoline 203-34, 203-49, or 203-51, or with 100 μl of sterile phosphate buffered saline (PBS) control. One hour after the injection, mice were injected subcutaneously with 100 μg CpG ODN 2006. Animals were bled at 3 hr post injection with CpG ODN 2006 and IP-10 levels in plasma measured by IP-10-specific enzyme-linked immunosorbent assay (ELISA).

[4] = system: TNF-α induction by CpG ODN 2006; assay: In vivo inhibition of TNF-α induction by CpG ODN 2006 (Example 11); set-up: species or system BALB/c mice; details: 40 μg intraperitoneal 1 h before 100 μg CpG ODN 2006 s.c.; bled at 1 hr
Protocol: FIG. 5 is a bar graph depicting in vivo inhibition of TNF-α induction (pg/ml) by CpG ODN 2006 following pretreatment with PBS control or a quinoline compound (203-43) or various indicated quinazoline compounds (203-34, 203-49, or 203-51). N=5 for each group.
as §2
Groups of BALB/c mice treated as in Example 10 were also analyzed for TNF-α. Animals were bled at 1 hr post injection with CpG ODN 2006 and TNF-α levels in plasma measured by TNF-α-specific ELISA.

[5] = read-out: IC50 by Macfarlane's assay; cited from earlier work
Plasmodium falciparum = details: treatment of malaria; Aderounmu 1984; cited from earlier work
[6] = Macfarlane's assay of chloroquines (IC50); details: from the Macfarlane IC50 values
Source text: It turns out that chloroquine, hydroxychloroquine, mono de-ethylchloroquine, and bis de-ethylchloroquine have been examined by Macfarlane.

[7] = cited from earlier work
WEHI 231 B-cells = details: anti-surface IgM, U.S. Pat. No. 6,479,504, read-out: EC50, half-maximal inhibition of CpG-ODN effect on thymidine uptake; cited from earlier work
[8] = 4.0 mg single intraperitoneal injection

Row | SMILES | pIC50 [1] | pIC50 (hTLR9) | pIC50 [5] | further results
1 | CN(C)CCNC1NC(c2ccc(N3CCN(C)CC3)cc2)=Nc2ccccc21 (stereo not shown) [CMZ 203-34(201), N,N-dimethyl-N′-{2-[4-(4-methyl-piperazin-1-yl)-phenyl]-3,4-dihydro-quinazoline-4-yl}-ethane-1,2,-diamine] | 7.30 | 8.52 | – | –
2 | CN(C)CCNc1cc(-c2ccc(N3CCN(C)CC3)cc2)nc2ccccc12 [CMZ 203-43] | – | – | – | body weight change ([2]; 1.0 mg single intraperitoneal injection, 5 days): significant weight loss; white blood cell differential ([2]; 1.0 mg single intraperitoneal injection, day 5): significant neutrophilia; morbidity and mortality [2, 8]: sick and had to be sacrificed on day 3; also recorded: dead on day 4; necropsy finding [2, 8]: bowel obstruction; serum IP-10 concentration versus PBS control [3]: significantly reduced; serum TNF-α concentration versus PBS control [4]: significantly reduced
3 | CN(C)CCNc1nc(-c2ccccc2)nc2ccccc12 [CMZ 203-44, N,N-Dimethyl-N′-(2-phenyl-quinazolin-4-yl)-ethane-1,2-diamine] | 5.40 | 5.62 | – | –
4 | CN(C)CCOc1nc(-c2ccc(N3CCN(C)CC3)cc2)nc2ccccc12 [CMZ 203-49(213), Dimethyl-(2-{2-[4-(4-methyl-piperazin-1-yl)-phenyl]-quinazolin-4-yloxy}-ethyl)-amine] | 6.22 | 5.62 | – | –
5 | CN(C)CCNc1nc(-c2ccc(-c3ccccc3)cc2)nc2ccccc12 [CMZ 203-51, N′-(2-Biphenyl-4-yl-quinazolin-4-yl)-N,N-dimethyl-ethane-1,2-diamine] | 5.18 | 5.28 | – | –
6 | COc1cc2nc(N3CCN(C)CC3)nc(NCCN(C)C)c2cc1OC [CMZ 203-76, N′-[6,7-Dimethoxy-2-(4-methyl-piperazin-1-yl)-quinazolin-4-yl]-N,N-dimethyl-ethane-1,2-diamine] | 6.66 | 8.52 | – | –
7 | COc1cc2nc(N3CCN(c4ccccc4)CC3)nc(NCCN(C)C)c2cc1OC [CMZ 203-78, N′-[6,7-Dimethoxy-2-(4-phenyl-piperazin-1-yl)-quinazolin-4-yl]-N,N-dimethyl-ethane-1,2-diamine] | 8.10 | 8.52 | – | –
8 | CC(CCCN)Nc1ccnc2cc(Cl)ccc12 (stereo not shown) [bis de-ethylchloroquine] | – | – | 5.73 | potency against Plasmodium falciparum (Plasmodium falciparum): about half as active; reduction of potency relative to chloroquine [6]: about 18 fold
9 | CCN(CC)CCCC(C)Nc1ccnc2cc(Cl)ccc12 (stereo not shown) [chloroquine] | – | – | 6.96 | potency against Plasmodium falciparum (Plasmodium falciparum): about equal; half life in humans ([7]; human, in vivo): 18 days
10 | CCN(CCO)CCCC(C)Nc1ccnc2cc(Cl)ccc12 (stereo not shown) [hydroxychloroquine] | – | – | 6.39 | –
11 | CCNCCCC(C)Nc1ccnc2cc(Cl)ccc12 (stereo not shown) [mono de-ethylchloroquine] | – | – | 6.15 | potency against Plasmodium falciparum (Plasmodium falciparum): about equal; reduction of potency relative to chloroquine [6]: about 7 fold; half life relative to that of chloroquine ([7]; humans): 1.5 times; half life in humans ([7]; humans, de Vries 1994): 27 days
12 | CCN(CC)CCCC(C)Nc1c2ccc(Cl)cc2nc2ccc(OC)cc12 (stereo not shown) [quinacrine] | – | – | – | pEC50 (WEHI 231 B-cells): ~8.10
